Results from patent US20240059671A1, “TYROSINE KINASE 2 (TYK2) DEGRADATION COMPOUNDS AND METHODS OF USE” (CULLGEN (SHANGHAI), INC., priority 2020, published 2024).

Molecular target: TYK2 (Homo sapiens, UniProt P29597)
Assay: TYK2 protein degradation in NOMO-1 cells by immunoblotting
Format: cell-based
Set-up: endogenous in cells
Details: NOMO-1 cells
Procedure, shortened: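 NOMO-1 cells in RPMI 1640 with 10% FBS were exposed to compound at 0.1–1000 nM for 16 hours. TYK2 levels in RIPA lysates were measured by SDS-PAGE immunoblot with chemiluminescent detection and band densitometry.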

TYK2, sequence (P29597 whole entry): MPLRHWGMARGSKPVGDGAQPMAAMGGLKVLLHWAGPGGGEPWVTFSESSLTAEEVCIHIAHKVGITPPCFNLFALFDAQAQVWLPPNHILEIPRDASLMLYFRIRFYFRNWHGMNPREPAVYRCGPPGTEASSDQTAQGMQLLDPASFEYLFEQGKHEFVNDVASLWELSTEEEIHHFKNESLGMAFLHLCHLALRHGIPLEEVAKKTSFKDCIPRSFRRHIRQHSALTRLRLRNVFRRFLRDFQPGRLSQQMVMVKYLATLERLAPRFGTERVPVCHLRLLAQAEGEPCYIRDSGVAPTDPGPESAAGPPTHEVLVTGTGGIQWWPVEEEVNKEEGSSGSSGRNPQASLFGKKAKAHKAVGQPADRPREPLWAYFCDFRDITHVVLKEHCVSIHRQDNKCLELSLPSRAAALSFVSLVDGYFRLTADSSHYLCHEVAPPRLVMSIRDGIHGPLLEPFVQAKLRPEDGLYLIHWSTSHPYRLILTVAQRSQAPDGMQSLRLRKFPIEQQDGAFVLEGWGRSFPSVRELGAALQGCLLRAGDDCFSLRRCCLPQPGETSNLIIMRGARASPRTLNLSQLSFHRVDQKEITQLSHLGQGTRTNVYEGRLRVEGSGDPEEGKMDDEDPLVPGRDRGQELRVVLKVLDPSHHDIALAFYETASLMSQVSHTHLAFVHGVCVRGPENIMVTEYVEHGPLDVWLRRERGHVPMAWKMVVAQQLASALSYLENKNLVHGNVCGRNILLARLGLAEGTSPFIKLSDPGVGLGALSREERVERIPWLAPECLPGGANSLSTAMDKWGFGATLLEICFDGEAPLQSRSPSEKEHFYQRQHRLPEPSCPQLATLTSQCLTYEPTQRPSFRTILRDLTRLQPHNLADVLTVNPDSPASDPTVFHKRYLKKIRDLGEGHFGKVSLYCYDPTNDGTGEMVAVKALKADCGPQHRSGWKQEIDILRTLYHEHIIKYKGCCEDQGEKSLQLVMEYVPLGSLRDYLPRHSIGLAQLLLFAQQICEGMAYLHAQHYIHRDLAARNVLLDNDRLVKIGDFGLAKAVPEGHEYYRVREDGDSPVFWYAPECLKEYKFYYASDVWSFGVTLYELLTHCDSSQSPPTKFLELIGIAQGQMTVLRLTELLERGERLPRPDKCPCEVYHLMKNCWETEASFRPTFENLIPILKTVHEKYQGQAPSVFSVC

Compound | TYK2 Degradation (NOMO-1, 100 nM) | TYK2 Degradation (NOMO-1, 10 nM)
CNC(=O)c1nnc(Nc2ccc(C(=O)NCCCCNc3cccc4c3C(=O)N(C3CCC(=O)NC3=O)C4=O)cn2)cc1Nc1cccc(-c2ncn(C)n2)c1OC (stereo not drawn) [CPD-154, 6-((5-((4-((2-(2,6-Dioxopiperidin-3-yl)-1,3-dioxoisoindolin-4-yl)amino)butyl)carbamoyl)pyridin-2-yl)amino)-4-((2-methoxy-3-(1-methyl-1H-1,2,4-triazol-3-yl)phenyl)amino)-N-methylpyridazine-3-carboxamide] | B (B: <60% TYK2 degradation, and >20% TYK2 degradation) | –
CNC(=O)c1nnc(Nc2ccc(CNC(=O)CCCCCCCCC(=O)N[C@H](C(=O)N3C[C@H](O)C[C@H]3C(=O)N[C@@H](C)c3ccc(-c4scnc4C)cc3)C(C)(C)C)cn2)cc1Nc1cccc(-c2ncn(C)n2)c1OC [CPD-133, N1-((S)-1-((2S,4R)-4-hydroxy-2-(((S)-1-(4-(4-methylthiazol-5-yl)phenyl)ethyl)carbamoyl)pyrrolidin-1-yl)-3,3-dimethyl-1-oxobutan-2-yl)-N10-((6-((5-((2-methoxy-3-(1-methyl-1H-1,2,4-triazol-3-yl)phenyl)amino)-6-(methylcarbamoyl)pyridazin-3-yl)amino)pyridin-3-yl)methyl)decanediamide] | A (A: ≥60% TYK2 degradation) | A (A: ≥60% TYK2 degradation)
CNC(=O)c1nnc(Nc2ccc(N3CCN(C4CCN(C(=O)CCCCCCCC(=O)N[C@H](C(=O)N5C[C@H](O)C[C@H]5C(=O)N[C@@H](C)c5ccc(-c6scnc6C)cc5)C(C)(C)C)CC4)CC3)cn2)cc1Nc1cccc(-c2ncn(C)n2)c1OC [CPD-150, 6-((5-(4-(1-(9-(((S)-1-((2S,4R)-4-hydroxy-2-(((S)-1-(4-(4-methylthiazol-5-yl)phenyl)ethyl)carbamoyl)pyrrolidin-1-yl)-3,3-dimethyl-1-oxobutan-2-yl)amino)-9-oxononanoyl)piperidin-4-yl)piperazin-1-yl)pyridin-2-yl)amino)-4-((2-methoxy-3-(1-methyl-1H-1,2,4-triazol-3-yl)phenyl)amino)-N-methylpyridazine-3-carboxamide] | A (A: ≥60% TYK2 degradation) | A (A: ≥60% TYK2 degradation)
CNC(=O)c1nnc(Nc2ccc(C(=O)NCCOCCNc3cccc4c3C(=O)N(C3CCC(=O)NC3=O)C4=O)cn2)cc1Nc1cccc(-c2ncn(C)n2)c1OC (stereo not drawn) [CPD-159, 6-((5-((2-(2-((2-(2,6-dioxopiperidin-3-yl)-1,3-dioxoisoindolin-4-yl)amino)ethoxy)ethyl)carbamoyl)pyridin-2-yl)amino)-4-((2-methoxy-3-(1-methyl-1H-1,2,4-triazol-3-yl)phenyl)amino)-N-methylpyridazine-3-carboxamide] | A (A: ≥60% TYK2 degradation) | A (A: ≥60% TYK2 degradation)
CNC(=O)c1nnc(Nc2ccc(C(=O)NCCNc3cccc4c3C(=O)N(C3CCC(=O)NC3=O)C4=O)cn2)cc1Nc1cccc(-c2ncn(C)n2)c1OC (stereo not drawn) [CPD-152, 6-((5-((2-((2-(2,6-Dioxopiperidin-3-yl)-1,3-dioxoisoindolin-4-yl)amino)ethyl)carbamoyl)pyridin-2-yl)amino)-4-((2-methoxy-3-(1-methyl-1H-1,2,4-triazol-3-yl)phenyl)amino)-N-methylpyridazine-3-carboxamide] | A (A: ≥60% TYK2 degradation) | –
CNC(=O)c1nnc(Nc2ccc(CNC(=O)CCCCCC(=O)N[C@H](C(=O)N3C[C@H](O)C[C@H]3C(=O)N[C@@H](C)c3ccc(-c4scnc4C)cc3)C(C)(C)C)cn2)cc1Nc1cccc(-c2ncn(C)n2)c1OC [CPD-130, N1-((S)-1-((2S,4R)-4-Hydroxy-2-(((S)-1-(4-(4-methylthiazol-5-yl)phenyl)ethyl)carbamoyl)pyrrolidin-1-yl)-3,3-dimethyl-1-oxobutan-2-yl)-N7-((6-((5-((2-methoxy-3-(1-methyl-1H-1,2,4-triazol-3-yl)phenyl)amino)-6-(methylcarbamoyl)pyridazin-3-yl)amino)pyridin-3-yl)methyl)heptanediamide] | B (B: <60% TYK2 degradation, and >20% TYK2 degradation) | –
CNC(=O)c1nnc(Nc2ccc(C(=O)NC3CC(CC(=O)N[C@H](C(=O)N4C[C@H](O)C[C@H]4C(=O)N[C@@H](C)c4ccc(-c5scnc5C)cc4)C(C)(C)C)C3)cn2)cc1Nc1cccc(-c2ncn(C)n2)c1OC (stereo partly drawn) [CPD-161, 6-((5-((3-(2-(((S)-1-((2S,4R)-4-hydroxy-2-(((S)-1-(4-(4-methylthiazol-5-yl)phenyl)ethyl)carbamoyl)pyrrolidin-1-yl)-3,3-dimethyl-1-oxobutan-2-yl)amino)-2-oxoethyl)cyclobutyl)carbamoyl)pyridin-2-yl)amino)-4-((2-methoxy-3-(1-methyl-1H-1,2,4-triazol-3-yl)phenyl)amino)-N-methylpyridazine-3-carboxamide] | A (A: ≥60% TYK2 degradation) | C (C: ≤20% TYK2 degradation)
CNC(=O)c1nnc(Nc2ccc(N3CCN(C4CCN(C(=O)CCCCCCC(=O)N[C@H](C(=O)N5C[C@H](O)C[C@H]5C(=O)N[C@@H](C)c5ccc(-c6scnc6C)cc5)C(C)(C)C)CC4)CC3)cn2)cc1Nc1cccc(-c2ncn(C)n2)c1OC [CPD-149, 6-((5-(4-(1-(8-(((S)-1-((2S,4R)-4-Hydroxy-2-(((S)-1-(4-(4-methylthiazol-5-yl)phenyl)ethyl)carbamoyl)pyrrolidin-1-yl)-3,3-dimethyl-1-oxobutan-2-yl)amino)-8-oxooctanoyl)piperidin-4-yl)piperazin-1-yl)pyridin-2-yl)amino)-4-((2-methoxy-3-(1-methyl-1H-1,2,4-triazol-3-yl)phenyl)amino)-N-methylpyridazine-3-carboxamide] | A (A: ≥60% TYK2 degradation) | –
CNC(=O)c1nnc(Nc2ccc(C(=O)NCC(=O)N[C@H](C(=O)N3C[C@H](O)C[C@H]3C(=O)N[C@@H](C)c3ccc(-c4scnc4C)cc3)C(C)(C)C)cn2)cc1Nc1cccc(-c2ncn(C)n2)c1OC [CPD-137, 6-((5-((2-(((S)-1-((2S,4R)-4-Hydroxy-2-(((S)-1-(4-(4-methylthiazol-5-yl)phenyl)ethyl)carbamoyl)pyrrolidin-1-yl)-3,3-dimethyl-1-oxobutan-2-yl)amino)-2-oxoethyl)carbamoyl)pyridin-2-yl)amino)-4-((2-methoxy-3-(1-methyl-1H-1,2,4-triazol-3-yl)phenyl)amino)-N-methylpyridazine-3-carboxamide] | A (A: ≥60% TYK2 degradation) | C (C: ≤20% TYK2 degradation)
CNC(=O)c1nnc(Nc2ccc(N3CCN(C(=O)CCCCCCC(=O)N[C@H](C(=O)N4C[C@H](O)C[C@H]4C(=O)N[C@@H](C)c4ccc(-c5scnc5C)cc4)C(C)(C)C)CC3)cn2)cc1Nc1cccc(-c2ncn(C)n2)c1OC [CDP-112, 6-((5-(4-(8-(((S)-1-((2S,4R)-4-Hydroxy-2-(((S)-1-(4-(4-methylthiazol-5-yl)phenyl)ethyl)carbamoyl)pyrrolidin-1-yl)-3,3-dimethyl-1-oxobutan-2-yl)amino)-8-oxooctanoyl)piperazin-1-yl)pyridin-2-yl)amino)-4-((2-methoxy-3-(1-methyl-1H-1,2,4-triazol-3-yl)phenyl)amino)-N-methylpyridazine-3-carboxamide] | A (A: ≥60% TYK2 degradation) | A (A: ≥60% TYK2 degradation)
CNC(=O)c1nnc(Nc2ccc(C#CC3CCN(C(=O)CCC(=O)N[C@H](C(=O)N4C[C@H](O)C[C@H]4C(=O)N[C@@H](C)c4ccc(-c5scnc5C)cc4)C(C)(C)C)CC3)cn2)cc1Nc1cccc(-c2ncn(C)n2)c1OC [CPD-116, 6-((5-((1-(4-(((S)-1-((2S,4R)-4-Hydroxy-2-(((S)-1-(4-(4-methylthiazol-5-yl)phenyl)ethyl)carbamoyl)pyrrolidin-1-yl)-3,3-dimethyl-1-oxobutan-2-yl)amino)-4-oxobutanoyl)piperidin-4-yl)ethynyl)pyridin-2-yl)amino)-4-((2-methoxy-3-(1-methyl-1H-1,2,4-triazol-3-yl)phenyl)amino)-N-methylpyridazine-3-carboxamide] | A (A: ≥60% TYK2 degradation) | C (C: ≤20% TYK2 degradation)
CNC(=O)c1nnc(Nc2ccc(CNC(=O)CCCCCCC(=O)N[C@H](C(=O)N3C[C@H](O)C[C@H]3C(=O)N[C@@H](C)c3ccc(-c4scnc4C)cc3)C(C)(C)C)cn2)cc1Nc1cccc(-c2ncn(C)n2)c1OC [CPD-131, N1-((S)-1-((2S,4R)-4-hydroxy-2-(((S)-1-(4-(4-methylthiazol-5-yl)phenyl)ethyl)carbamoyl)pyrrolidin-1-yl)-3,3-dimethyl-1-oxobutan-2-yl)-N8-((6-((5-((2-methoxy-3-(1-methyl-1H-1,2,4-triazol-3-yl)phenyl)amino)-6-(methylcarbamoyl)pyridazin-3-yl)amino)pyridin-3-yl)methyl)octanediamide] | A (A: ≥60% TYK2 degradation) | A (A: ≥60% TYK2 degradation)
CNC(=O)c1nnc(Nc2ccc(C(=O)NCCCCNc3ccc4c(c3)C(=O)N(C3CCC(=O)NC3=O)C4=O)cn2)cc1Nc1cccc(-c2ncn(C)n2)c1OC (stereo not drawn) [CPD-163, 6-((5-((4-((2-(2,6-dioxopiperidin-3-yl)-1,3-dioxoisoindolin-5-yl)amino)butyl)carbamoyl)pyridin-2-yl)amino)-4-((2-methoxy-3-(1-methyl-1H-1,2,4-triazol-3-yl)phenyl)amino)-N-methylpyridazine-3-carboxamide] | C (C: ≤20% TYK2 degradation) | –
